{
  "source": "paper PMC11173618",
  "about": "“C2-Symmetrical Terphenyl Derivatives as Small Molecule Inhibitors of Programmed Cell Death 1/Programmed Death Ligand 1 Protein–Protein Interaction” (Molecules, 2024)",
  "target": "T1, PD-1/PD-L1 complex (Homo sapiens, UniProt Q9NZQ7)",
  "T1 construct": "purchased cis-bio",
  "T1 sequence (Q9NZQ7 19-238 limits assumed, one chain of several)": "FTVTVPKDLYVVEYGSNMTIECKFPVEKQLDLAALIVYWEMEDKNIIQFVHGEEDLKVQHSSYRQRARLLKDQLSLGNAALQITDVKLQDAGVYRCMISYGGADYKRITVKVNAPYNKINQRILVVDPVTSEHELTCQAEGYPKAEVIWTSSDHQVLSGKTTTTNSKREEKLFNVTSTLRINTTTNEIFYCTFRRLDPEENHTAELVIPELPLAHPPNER",
  "assay": "HTRF assay of PD-1/PD-L1 complex inhibition (cis-bio kit)",
  "assay_type": "binding",
  "conditions": "for inhibition at 0.5 µM / inhibition at 5 µM: 1 h, scouting mode, 5 nM PD-L1, 50 nM PD-1, read-out: HTRF [%] (percentage of dissociated PD-1/PD-L1 complex); for inhibition at 0.5 µM: inhibitor 0.5 µM; for inhibition at 5 µM: inhibitor 5 µM",
  "experimental": "All synthesized molecules were tested in the homogeneous time-resolved fluorescence (HTRF) assay to assess their activity as inhibitors of the PD-1/PD-L1 complex (Table 1, Table 2 and Table 3). This evaluation was conducted in scouting modes, employing concentrations of 5 μM and 0.5 μM. Based on the obtained measurements, the IC50 values were estimated for each tested compound.\nThe certified cis-bio assay kit was used to perform the HTRF assay. Following the standard protocol, the measurement was carried out at a 20 µL final volume with a 5 nM concentration of PD-L1 and a 50 nM concentration of PD-1 in the final formulation. […] The plate was incubated for 1 h and then read on an HTRF-certified Tecan Spark 20M microplate reader. Output data were subjected to background subtraction on negative control (without PD-1) and normalization in correlation to the positive control (without inhibitor) and were then averaged. The resulting data points were then fitted with Hill’s equation to generate IC50 using Mathematica 12. […]",
  "data": [
    {"smiles": "CC(=O)NCCNCc1cc(F)c(OCc2ccc(-c3cccc(-c4ccc(COc5cc(F)c(CNCCNC(C)=O)cc5F)c(C)c4)c3C)cc2C)cc1F", "note": "[Compound 7h, N,N’-(((((((2′,3,3′′-trimethyl-[1,1′:3′,1′′-terphenyl]-4,4′′-diyl)bis(methylene))bis(oxy))bis(2,5-difluoro-4,1-phenylene))bis(methylene))bis(azanediyl))bis(ethane-2,1-diyl))diacetamide]", "values": [
      {"measurement": "inhibition at 0.5 µM", "result": "84.1 ± 26.4", "unit": "%"},
      {"measurement": "inhibition at 5 µM", "result": "69 ± 0.9", "unit": "%"}
    ]},
    {"smiles": "COc1cc(-c2cccc(-c3ccc(COc4ccc(CNCCO)cc4OC)c(OC)c3)c2C)ccc1COc1ccc(CNCCO)cc1OC", "note": "[Compound 7b, 2,2′-((((((3,3′′-dimethoxy-2′-methyl-[1,1′:3′,1′′-terphenyl]-4,4′′-diyl)bis(methylene))bis(oxy))bis(3-methoxy-4,1-phenylene))bis(methylene))bis(azanediyl))bis(ethan-1-ol)]", "values": [
      {"measurement": "inhibition at 0.5 µM", "result": "60.9 ± 3.9", "unit": "%"},
      {"measurement": "inhibition at 5 µM", "result": "11.9 ± 1", "unit": "%"}
    ]},
    {"smiles": "COc1cc(CNCCNC(C)=O)ccc1OCc1ccc(-c2cccc(-c3ccc(COc4ccc(CNCCNC(C)=O)cc4OC)c(C)c3)c2C)cc1C", "note": "[Compound 7e, N,N’-(((((((2′,3,3′′-trimethyl-[1,1′:3′,1′′-terphenyl]-4,4′′-diyl)bis(methylene))bis(oxy))bis(3-methoxy-4,1-phenylene))bis(methylene))bis(azanediyl))bis(ethane-2,1-diyl))diacetamide]", "values": [
      {"measurement": "inhibition at 0.5 µM", "result": "93.8 ± 3.6", "unit": "%"},
      {"measurement": "inhibition at 5 µM", "result": "55.3 ± 13.4", "unit": "%"}
    ]},
    {"smiles": "CC(=O)NCCNCc1cc(F)c(OCc2cccc(-c3cc(C)cc(-c4cccc(COc5cc(F)c(CNCCNC(C)=O)cc5F)c4C)c3)c2C)cc1F", "note": "[Compound 4f, N,N’-(((((((2,2′′,5′-trimethyl-[1,1′:3′,1′′-terphenyl]-3,3′′-diyl)bis(methylene))bis(oxy))bis(2,5-difluoro-4,1-phenylene))bis(methylene))bis(azanediyl))bis(ethane-2,1-diyl))diacetamide]", "values": [
      {"measurement": "inhibition at 0.5 µM", "result": "85.7 ± 10.9", "unit": "%"},
      {"measurement": "inhibition at 5 µM", "result": "28.2 ± 1.5", "unit": "%"}
    ]},
    {"smiles": "COc1cc(CNC(CO)CO)ccc1OCc1ccc(-c2cccc(-c3ccc(COc4ccc(CNC(CO)CO)cc4OC)c(C)c3)c2C)cc1C", "note": "[Compound 7g, 2,2′-((((((2′,3,3′′-trimethyl-[1,1′:3′,1′′-terphenyl]-4,4′′-diyl)bis(methylene))bis(oxy))bis(3-methoxy-4,1-phenylene))bis(methylene))bis(azanediyl))bis(propane-1,3-diol)]", "values": [
      {"measurement": "inhibition at 0.5 µM", "result": "94.5 ± 18.1", "unit": "%"},
      {"measurement": "inhibition at 5 µM", "result": "53.7 ± 1.7", "unit": "%"}
    ]},
    {"smiles": "COc1cc(CNCCNC(C)=O)ccc1OCc1ccc(-c2cccc(-c3ccc(COc4ccc(CNCCNC(C)=O)cc4OC)cc3C)c2C)c(C)c1", "note": "[Compound 7c, N,N’-(((((((2,2′,2′′-trimethyl-[1,1′:3′,1′′-terphenyl]-4,4′′-diyl)bis(methylene))bis(oxy))bis(3-methoxy-4,1-phenylene))bis(methylene))bis(azanediyl))bis(ethane-2,1-diyl))diacetamide]", "values": [
      {"measurement": "inhibition at 0.5 µM", "result": "82.1 ± 8", "unit": "%"},
      {"measurement": "inhibition at 5 µM", "result": "77.1 ± 0.7", "unit": "%"}
    ]},
    {"smiles": "Cc1cc(-c2cccc(-c3ccc(COc4cc(F)c(CNCCO)cc4F)c(C)c3)c2C)ccc1COc1cc(F)c(CNCCO)cc1F", "note": "[Compound 7i, 2,2′-((((((2′,3,3′′-trimethyl-[1,1′:3′,1′′-terphenyl]-4,4′′-diyl)bis(methylene))bis(oxy))bis(2,5-difluoro-4,1-phenylene))bis(methylene))bis(azanediyl))bis(ethan-1-ol)]", "values": [
      {"measurement": "inhibition at 0.5 µM", "result": "78.5 ± 7.3", "unit": "%"},
      {"measurement": "inhibition at 5 µM", "result": "42.2 ± 7.2", "unit": "%"}
    ]},
    {"smiles": "COc1cc(CNCCO)ccc1OCc1ccc(-c2cccc(-c3ccc(COc4ccc(CNCCO)cc4OC)cc3C)c2C)c(C)c1", "note": "[Compound 7d, 2,2′-((((((2,2′,2′′-trimethyl-[1,1′:3′,1′′-terphenyl]-4,4′′-diyl)bis(methylene))bis(oxy))bis(3-methoxy-4,1-phenylene))bis(methylene))bis(azanediyl))bis(ethan-1-ol)]", "values": [
      {"measurement": "inhibition at 0.5 µM", "result": "86.1 ± 12.7", "unit": "%"},
      {"measurement": "inhibition at 5 µM", "result": "35.7 ± 3.3", "unit": "%"}
    ]},
    {"smiles": "COc1cc(-c2cccc(-c3ccc(COc4ccc(CNCCNC(C)=O)cc4OC)c(OC)c3)c2C)ccc1COc1ccc(CNCCNC(C)=O)cc1OC", "note": "[Compound 7a, N,N’-(((((((3,3′′-dimethoxy-2′-methyl-[1,1′:3′,1′′-terphenyl]-4,4′′-diyl)bis(methylene))bis(oxy))bis(3-methoxy-4,1-phenylene))bis(methylene))bis(azanediyl))bis(ethane-2,1-diyl))diacetamide]", "values": [
      {"measurement": "inhibition at 0.5 µM", "result": "72.5 ± 8.1", "unit": "%"},
      {"measurement": "inhibition at 5 µM", "result": "23.8 ± 0.3", "unit": "%"}
    ]},
    {"smiles": "CC(=O)NCCNCc1cccc(OCc2cccc(-c3cc(C)cc(-c4cccc(COc5cccc(CNCCNC(C)=O)c5Br)c4C)c3)c2C)c1Br", "note": "[Compound 4e, N,N’-(((((((2,2′′,5′-trimethyl-[1,1′:3′,1′′-terphenyl]-3,3′′-diyl)bis(methylene))bis(oxy))bis(2-bromo-3,1-phenylene))bis(methylene))bis(azanediyl))bis(ethane-2,1-diyl))diacetamide]", "values": [
      {"measurement": "inhibition at 0.5 µM", "result": "93.9 ± 5.5", "unit": "%"},
      {"measurement": "inhibition at 5 µM", "result": "94.2 ± 2.3", "unit": "%"},
      {"measurement": "IC50 Estimated", "setting": "estimated from scouting data (5 and 0.5 µM) by translation of the Hill fit of 7b, 7j, 7m", "result": "not active"}
    ]},
    {"smiles": "COc1cccc(CNCCO)c1OCc1cccc(-c2cccc(-c3cccc(COc4c(CNCCO)cccc4OC)c3)c2C)c1", "note": "[Compound 8c, 2,2′-((((((2′-methyl-[1,1′:3′,1′′-terphenyl]-3,3′′-diyl)bis(methylene))bis(oxy))bis(3-methoxy-2,1-phenylene))bis(methylene))bis(azanediyl))bis(ethan-1-ol)]", "values": [
      {"measurement": "inhibition at 0.5 µM", "result": "104 ± 3.3", "unit": "%"},
      {"measurement": "inhibition at 5 µM", "result": "61.1 ± 4.5", "unit": "%"}
    ]},
    {"smiles": "COc1cc(-c2cc(C)cc(-c3ccc(COc4c(CNCCNC(C)=O)cccc4OC)c(OC)c3)c2)ccc1COc1c(CNCCNC(C)=O)cccc1OC", "note": "[Compound 6a, N,N’-(((((((3,3′′-dimethoxy-5′-methyl-[1,1′:3′,1′′-terphenyl]-4,4′′-diyl)bis(methylene))bis(oxy))bis(3-methoxy-2,1-phenylene))bis(methylene))bis(azanediyl))bis(ethane-2,1-diyl))diacetamide]", "values": [
      {"measurement": "inhibition at 0.5 µM", "result": "86.1 ± 4.5", "unit": "%"},
      {"measurement": "inhibition at 5 µM", "result": "59.2 ± 2.6", "unit": "%"}
    ]},
    {"smiles": "COc1cccc(CNCCNC(C)=O)c1OCc1ccccc1-c1cc(C)cc(-c2ccccc2COc2c(CNCCNC(C)=O)cccc2OC)c1", "note": "[Compound 5a, N,N’-(((((((5′-methyl-[1,1′:3′,1′′-terphenyl]-2,2′′-diyl)bis(methylene))bis(oxy))bis(3-methoxy-2,1-phenylene))bis(methylene))bis(azanediyl))bis(ethane-2,1-diyl))diacetamide]", "values": [
      {"measurement": "inhibition at 0.5 µM", "result": "84.3 ± 13.1", "unit": "%"},
      {"measurement": "inhibition at 5 µM", "result": "78.4 ± 6.4", "unit": "%"}
    ]},
    {"smiles": "CC(=O)NCCNCc1cccc(OCc2cccc(-c3cc(C)cc(-c4cccc(COc5cccc(CNCCNC(C)=O)c5Br)c4)c3)c2)c1Br", "note": "[Compound 4c, N,N’-(((((((5′-methyl-[1,1′:3′,1′′-terphenyl]-3,3′′-diyl)bis(methylene))bis(oxy))bis(2-bromo-3,1-phenylene))bis(methylene))bis(azanediyl))bis(ethane-2,1-diyl))diacetamide]", "values": [
      {"measurement": "inhibition at 0.5 µM", "result": "88.6 ± 14", "unit": "%"},
      {"measurement": "inhibition at 5 µM", "result": "70.8 ± 18.8", "unit": "%"}
    ]},
    {"smiles": "CC(=O)NCCNCc1cccc(OCc2ccc(-c3cccc(-c4ccc(COc5cccc(CNCCNC(C)=O)c5Br)cc4)c3C)cc2)c1Br", "note": "[Compound 7j, N,N’-(((((((2′-methyl-[1,1′:3′,1′′-terphenyl]-4,4′′-diyl)bis(methylene))bis(oxy))bis(2-bromo-3,1-phenylene))bis(methylene))bis(azanediyl))bis(ethane-2,1-diyl))diacetamide]", "values": [
      {"measurement": "inhibition at 0.5 µM", "result": "40.4 ± 1.5", "unit": "%"},
      {"measurement": "inhibition at 5 µM", "result": "11.1 ± 0.3", "unit": "%"}
    ]},
    {"smiles": "CC(=O)NCCNCc1cccc(OCc2cccc(-c3cc(C)cc(-c4cccc(COc5cccc(CNCCNC(C)=O)c5)c4)c3)c2)c1", "note": "[Compound 4a, N,N’-(((((((5′-methyl-[1,1′:3′,1′′-terphenyl]-3,3′′-diyl)bis(methylene))bis(oxy))bis(3,1-phenylene))bis(methylene))bis(azanediyl))bis(ethane-2,1-diyl))diacetamide]", "values": [
      {"measurement": "inhibition at 0.5 µM", "result": "80.4 ± 18.8", "unit": "%"},
      {"measurement": "inhibition at 5 µM", "result": "56.8 ± 15.4", "unit": "%"}
    ]},
    {"smiles": "CC(=O)NCCNCc1cccc(OCc2cccc(-c3cc(C)cc(-c4cccc(COc5cccc(CNCCNC(C)=O)c5)c4F)c3)c2F)c1", "note": "[Compound 4d, N,N’-(((((((2,2′′-difluoro-5′-methyl-[1,1′:3′,1′′-terphenyl]-3,3′′-diyl)bis(methylene))bis(oxy))bis(3,1-phenylene))bis(methylene))bis(azanediyl))bis(ethane-2,1-diyl))diacetamide]", "values": [
      {"measurement": "inhibition at 0.5 µM", "result": "89.9 ± 19.8", "unit": "%"},
      {"measurement": "inhibition at 5 µM", "result": "22.5 ± 9.17", "unit": "%"}
    ]},
    {"smiles": "Cc1c(-c2cccc(COc3cccc(CNCCO)c3Br)c2)cccc1-c1cccc(COc2cccc(CNCCO)c2Br)c1", "note": "[Compound 8a, 2,2′-((((((2′-methyl-[1,1′:3′,1′′-terphenyl]-3,3′′-diyl)bis(methylene))bis(oxy))bis(2-bromo-3,1-phenylene))bis(methylene))bis(azanediyl))bis(ethan-1-ol)]", "values": [
      {"measurement": "inhibition at 0.5 µM", "result": "94.6 ± 0.1", "unit": "%"},
      {"measurement": "inhibition at 5 µM", "result": "23 ± 0.1", "unit": "%"}
    ]},
    {"smiles": "COc1cc(CNCCO)ccc1OCc1ccc(-c2cccc(-c3ccc(COc4ccc(CNCCO)cc4OC)c(C)c3)c2C)cc1C", "note": "[Compound 7f, 2,2′-((((((2′,3,3′′-trimethyl-[1,1′:3′,1′′-terphenyl]-4,4′′-diyl)bis(methylene))bis(oxy))bis(3-methoxy-4,1-phenylene))bis(methylene))bis(azanediyl))bis(ethan-1-ol)]", "values": [
      {"measurement": "inhibition at 0.5 µM", "result": "93.1 ± 17.4", "unit": "%"},
      {"measurement": "inhibition at 5 µM", "result": "46.4 ± 9.6", "unit": "%"}
    ]}
  ]
}
